The text below walks through data of patent US10508120B2, “TYK2 inhibitors and uses thereof” (Nimbus Lakshmi, Inc., priority 2017, dated 2019).

One assay deals with JAK2 kinase domain (JH1) (Homo sapiens (Human), UniProt O60674). In words: JAK2 Radioactive Kinase Assay. In kind it is biochemical. The conditions noted are these: for inhibition at 10 µM: read-out: JAK2 JH1% Inhibition @ 10 μM. A digest of the protocol: (§1)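 Compounds were tested at a single concentration of 10 μM in a radiometric kinase format against each isolated kinase domain. Activity is reported as percent inhibition at that concentration.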

The target of a further assay is Tyk2 kinase domain (DH1) (Homo sapiens (Human), UniProt P29597). Put plainly: Tyk2 Radioactive Kinase Assay. In kind it is biochemical. The conditions noted are these: for inhibition at 10 µM: read-out: Tyk2 JH1% Inhibition @ 10 μM. A digest of the protocol: as §1
For assay [1], the target named is human TYK2 (JH2domain-pseudokinase) (Homo sapiens (Human), UniProt P29597). In words: TYK2 JH2 Domain Binding Assay (KINOMEscan). A digest of the protocol: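 Pseudokinase domain binding was measured by qPCR of tagged, bead-retained kinase after 1 h room-temperature competition, with 0.9% DMSO and compound up to 30,000 nM in 3-fold steps. Hill-equation Kd, duplicate.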

The structures appear in SMILES notation. Read-outs that look alike come from different tables or passages of the source.

JAK2 kinase domain (JH1), sequence (O60674 849-1124): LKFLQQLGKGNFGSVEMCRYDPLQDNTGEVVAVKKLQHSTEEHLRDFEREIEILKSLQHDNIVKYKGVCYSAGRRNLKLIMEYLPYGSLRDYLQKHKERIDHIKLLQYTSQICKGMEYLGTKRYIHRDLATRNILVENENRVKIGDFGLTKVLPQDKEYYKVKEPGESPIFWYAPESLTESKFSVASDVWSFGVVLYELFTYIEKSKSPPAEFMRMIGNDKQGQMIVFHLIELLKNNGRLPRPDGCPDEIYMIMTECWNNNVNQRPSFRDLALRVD
Tyk2 kinase domain (DH1), sequence (P29597 897-1176): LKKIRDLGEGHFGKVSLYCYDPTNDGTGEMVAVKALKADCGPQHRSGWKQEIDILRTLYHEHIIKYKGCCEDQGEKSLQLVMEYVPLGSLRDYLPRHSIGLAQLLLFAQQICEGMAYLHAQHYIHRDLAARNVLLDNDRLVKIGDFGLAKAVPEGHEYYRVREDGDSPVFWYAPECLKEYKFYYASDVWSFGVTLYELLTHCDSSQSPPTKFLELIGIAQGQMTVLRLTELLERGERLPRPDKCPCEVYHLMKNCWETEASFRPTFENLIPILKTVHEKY
human TYK2 (JH2domain-pseudokinase), sequence (P29597 556-888): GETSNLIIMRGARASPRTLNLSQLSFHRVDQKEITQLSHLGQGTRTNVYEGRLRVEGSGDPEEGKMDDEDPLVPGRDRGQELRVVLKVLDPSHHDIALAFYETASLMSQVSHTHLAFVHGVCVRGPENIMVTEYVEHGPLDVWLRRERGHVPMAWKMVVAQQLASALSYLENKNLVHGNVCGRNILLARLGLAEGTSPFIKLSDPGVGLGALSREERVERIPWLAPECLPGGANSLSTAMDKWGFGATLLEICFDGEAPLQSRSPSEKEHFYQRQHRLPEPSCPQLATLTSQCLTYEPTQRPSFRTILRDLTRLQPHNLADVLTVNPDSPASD

With `CNc1cc(Nc2cccn(C3CCCCC3)c2=O)nc2c(C(=O)N[C@H]3COC[C@H]3O)cnn12` (stereo in doubt) [I-1112, 5-((1-cyclohexyl-2-oxo-1,2-dihydropyridin-3-yl)amino)-N-(4-hydroxytetrahydrofuran-3-yl)-7-(methylamino)pyrazolo[1,5-a]pyrimidine-3-carboxamide], the inhibition at 10 µM at JAK2 kinase domain (JH1) (10 μM compound, 10 μM ATP) is below 50%; on Tyk2 kinase domain (DH1) (10 μM compound, 10 μM ATP), below 50%. Further, in assay [1], the dissociation constant Kd was 0.2 to 1 nM.
As for `CNc1cc(Nc2cccn(-c3cccnc3C)c2=O)nc2c(C(=O)N[C@@H]3C[C@@H]3F)cnn12` [I-813], the inhibition at 10 µM at JAK2 kinase domain (JH1) (10 μM compound, 10 μM ATP) is below 50%; at Tyk2 kinase domain (DH1) (10 μM compound, 10 μM ATP), below 50%. The Kd in assay [1] is 0.2 to 1 nM.
Consider `CNc1cc(Nc2cccn([C@H]3CCC[C@H]3OC)c2=O)nc2c(C(=O)N[C@@H]3C[C@@H]3F)cnn12` [I-538], for which the inhibition at 10 µM on JAK2 kinase domain (JH1) (compound at 10 μM, ATP 10 μM) was below 50%; on Tyk2 kinase domain (DH1) (compound at 10 μM, ATP 10 μM) it was below 50%. In addition, the dissociation constant Kd in assay [1] lay in the range of 1 to 10 nM.
`CCn1cc(Cl)cc(Nc2cc(N)n3ncc(C(N)=O)c3n2)c1=O` [I-49]: the inhibition at 10 µM at JAK2 kinase domain (JH1) (compound at 10 μM, ATP 10 μM) was below 50%; on Tyk2 kinase domain (DH1) (compound at 10 μM, ATP 10 μM), below 50%. For the same molecule, in assay [1], the dissociation constant Kd fell in the range of 0.2 to 1 nM.
Take `CNc1cc(Nc2cccnc2OC2CC2)nc2c(C(=O)NCCC(C)(C)O)cnn12` [I-422, 5-((2-cyclopropoxypyridin-3-yl)amino)-N-(3-hydroxy-3-methylbutyl)-7-(methylamino)pyrazolo[1,5-a]pyrimidine-3-carboxamide]: the inhibition at 10 µM on JAK2 kinase domain (JH1) (compound at 10 μM, ATP 10 μM) is below 50%; on Tyk2 kinase domain (DH1) (compound at 10 μM, ATP 10 μM), below 50%. Moreover, in assay [1], the Kd fell in the range of 1 to 10 nM.
For `CNc1cc(Nc2cccn(C3CCN(C)CC3)c2=O)nc2c(C(=O)N[C@@H]3CC[C@@H]3O)cnn12` [I-690], the “JAK2 JH1% Inhibition @ 10 μM” value at JAK2 kinase domain (JH1) (compound at 10 μM, ATP 10 μM) is “A (percent inhibition at 10 μM lower than 50)”. Further, on Tyk2 kinase domain (DH1) (compound at 10 μM, ATP 10 μM), the “Tyk2 JH1% Inhibition @ 10 μM” value is listed as “A (percent inhibition at 10 μM lower than 50)”. For the same molecule, the dissociation constant (Kd) in assay [1] is 1 to 10 nM.
For the molecule `CNc1cc(Nc2cccn([C@H]3CCCOC3)c2=O)nc2c(C(=O)N[C@H]3CC[C@H]3O)cnn12` [I-745], the inhibition at 10 µM at JAK2 kinase domain (JH1) (compound at 10 μM, ATP 10 μM) is below 50%; on Tyk2 kinase domain (DH1) (compound at 10 μM, ATP 10 μM), below 50%. This molecule returned a Kd in assay [1] below 0.2 nM.
For `CNc1cc(Nc2cccn(C3CCN(CC(F)F)CC3)c2=O)nc2c(C(=O)N[C@H]3C[C@H]3F)cnn12` [I-230], the inhibition at 10 µM on JAK2 kinase domain (JH1) (compound at 10 μM, ATP 10 μM) is below 50%; at Tyk2 kinase domain (DH1) (compound at 10 μM, ATP 10 μM), below 50%. In addition, the Kd in assay [1] lay within 0.2 to 1 nM.
For `CNc1cc(Nc2cccn(-c3ccn(C4CC4)n3)c2=O)nc2c(C(=O)NC3COC3)cnn12` [I-89, 5-((1-(1-cyclopropyl-1H-pyrazol-3-yl)-2-oxo-1,2-dihydropyridin-3-yl)amino)-7-(methylamino)-N-(oxetan-3-yl)pyrazolo[1,5-a]pyrimidine-3-carboxamide], the inhibition at 10 µM on JAK2 kinase domain (JH1) (compound at 10 μM, ATP 10 μM) is below 50%; on Tyk2 kinase domain (DH1) (compound at 10 μM, ATP 10 μM) it was below 50%. The Kd in assay [1] was above 10 nM.
As for `CNc1cc(Nc2cccnc2OC)nc2c(-c3cn(C(C)C)nn3)cnn12` [I-1008, 3-(1-isopropyl-1H-1,2,3-triazol-4-yl)-N5-(2-methoxypyridin-3-yl)-N7-methylpyrazolo[1,5-a]pyrimidine-5,7-diamine], the inhibition at 10 µM at JAK2 kinase domain (JH1) (10 μM compound, 10 μM ATP) was 50 to 70%; on Tyk2 kinase domain (DH1) (10 μM compound, 10 μM ATP) it was below 50%. The equilibrium dissociation constant (Kd) in assay [1] is below 0.2 nM.
For `Cc1cc(Nc2cc(N)n3ncc(C(N)=O)c3n2)c(=O)n(-c2cnn(C)c2)n1` [I-74], the inhibition at 10 µM on JAK2 kinase domain (JH1) (compound at 10 μM, ATP 10 μM) was below 50%; at Tyk2 kinase domain (DH1) (compound at 10 μM, ATP 10 μM) it was below 50%. The molecule further came in with a Kd in assay [1] of 0.2 to 1 nM.
In the case of `CNc1cc(-c2cn(CCN3CCOCC3)c3ncccc23)nc2c(C(=O)NCC3(CO)CC3)cnn12` [I-807, N-((1-(hydroxymethyl)cyclopropyl)methyl)-7-(methylamino)-5-(1-(2-morpholinoethyl)-1H-pyrrolo[2,3-b]pyridin-3-yl)pyrazolo[1,5-a]pyrimidine-3-carboxamide], the inhibition at 10 µM was below 50% at JAK2 kinase domain (JH1) (compound at 10 μM, ATP 10 μM) and below 50% on Tyk2 kinase domain (DH1) (compound at 10 μM, ATP 10 μM). Moreover, the dissociation constant (Kd) in assay [1] was in the range of 0.2 to 1 nM.
Regarding `CNc1cc(Nc2cccn([C@H]3CCC[C@@H]3OC)c2=O)nc2c(C(=O)N[C@@H]3C[C@@H]3F)cnn12` [I-442], the inhibition at 10 µM is below 50% at JAK2 kinase domain (JH1) (compound at 10 μM, ATP 10 μM) and below 50% on Tyk2 kinase domain (DH1) (compound at 10 μM, ATP 10 μM). The same molecule showed a Kd in assay [1] of 0.2 to 1 nM.
